Experimental data: paper PMC8589851 (Scientific Reports, 2021)
Several values for one entry are separate records, joined by “and”; a condition that tells them apart may be missing. Identical values can stand only once. Like-named read-outs stand apart in the source and are kept apart here.

Key:
[1] = test system: SARS-CoV-2 NanoLuc reporter virus; experiment: microbe, parasite or virus in culture; assay type: cell-based
[2] = CF patients, cited from earlier work
native SARS-CoV-2 = conditions: Vero cells; cited from earlier work
[3] = 0.25 mg daily for one week, cystic fibrosis patients; cited from earlier work
[4] = 0.50–0.60 mg injected, 12 normal subjects; cited from earlier work
[5] = test system: SARS-CoV-2 Spike pseudotyped VSV(S); experiment: microbe, parasite or virus in culture; assay type: cell-based; conditions: Severe acute respiratory syndrome coronavirus 2, A549, read-out: Hill plot-based EC-50, inhibition of virus penetration
[6] = cited from earlier work
[7] = 0.25 mg ouabain daily for 9 days
[8] = 0.25 mg ouabain, normal human volunteers

C[C@]12CC[C@H](O)C[C@H]1CC[C@@H]1[C@@H]2CC[C@]2(C)[C@@H](C3=CC(=O)OC3)CC[C@]12O [Digitoxigenin, digitoxigenin]
inhibition of infectivity [1]: 100%

C[C@H]1O[C@@H](O[C@H]2[C@@H](O)C[C@H](O[C@H]3[C@@H](O)C[C@H](O[C@H]4CC[C@@]5(C)[C@H](CC[C@@H]6[C@@H]5CC[C@]5(C)[C@@H](C7=CC(=O)OC7)CC[C@]65O)C4)O[C@@H]3C)O[C@@H]2C)C[C@H](O)[C@@H]1O [Digitoxin, digitoxin]
peak serum concentration ([2]; 0.1 mg/day by mouth, by day 28): 10 ng/ml and 13 nM | adverse events ([2]; 0.05 or 0.1 mg/day for 28 days): no adverse events were associated with the study drug | inhibition of infectivity [1]: 100%

C[C@]12CC[C@H](O)C[C@H]1CC[C@@H]1[C@@H]2C[C@@H](O)[C@]2(C)[C@@H](C3=CC(=O)OC3)CC[C@]12O [Digoxigenin, digoxigenin]
inhibition of infectivity [1]: 100%

C[C@H]1O[C@@H](O[C@H]2[C@@H](O)C[C@H](O[C@H]3[C@@H](O)C[C@H](O[C@H]4CC[C@@]5(C)[C@H](CC[C@@H]6[C@@H]5C[C@@H](O)[C@]5(C)[C@@H](C7=CC(=O)OC7)CC[C@]65O)C4)O[C@@H]3C)O[C@@H]2C)C[C@H](O)[C@@H]1O [Digoxin, digoxin]
inhibition of infectivity [1]: 100% | EC50 (native SARS-CoV-2): 0.043 µM | adverse events [3]: no adverse events associated with the study drug

C[C@@H]1O[C@@H](O[C@H]2C[C@@H](O)[C@]3(CO)[C@H]4[C@H](O)C[C@]5(C)[C@@H](C6=CC(=O)OC6)CC[C@]5(O)[C@@H]4CC[C@]3(O)C2)[C@H](O)[C@H](O)[C@H]1O [Ouabain, ouabain]
adverse effects [4]: No adverse effects were reported | EC50 [5]: 0.016 ± 0.001 µM | adverse events [6, 7]: No adverse events were reported | time to plateau [6, 7]: 4 to 5 days | half-life [6, 8]: 19 to 24 h | peak plasma concentration [6, 8]: 12 ng/ml and 20 nM | inhibition of infectivity [1]: 100% | EC50 ([1]; Severe acute respiratory syndrome coronavirus 2, read-out: EC50, inhibition of infectivity): 0.036 µM | EC50 (native SARS-CoV-2): 0.024 µM
